PMC2765255 (Journal of medicinal chemistry, 2009)
Structures can show the parent of a compound that is named as a salt.

Legend:
[1] = tested on: STX biosynthesis in S. aureus; assay: Staphyloxanthin biosynthesis inhibition assay; format: cell-based; settings: Staphylococcus aureus, 72 h, read-out: staphyloxanthin IC50
[2] = target: S. aureus CrtM (dehydrosqualene synthase) (Staphylococcus aureus, UniProt A9JQL9); assay: CrtM enzyme inhibition assay; format: biochemical
[3] = target: human squalene synthase (SQS) (Homo sapiens, UniProt P37268); format: biochemical; settings: experimental data
S. aureus = settings: mice treated with 1, compared to control group; cited from earlier work

Sequence of human squalene synthase (SQS) (P37268 31-370): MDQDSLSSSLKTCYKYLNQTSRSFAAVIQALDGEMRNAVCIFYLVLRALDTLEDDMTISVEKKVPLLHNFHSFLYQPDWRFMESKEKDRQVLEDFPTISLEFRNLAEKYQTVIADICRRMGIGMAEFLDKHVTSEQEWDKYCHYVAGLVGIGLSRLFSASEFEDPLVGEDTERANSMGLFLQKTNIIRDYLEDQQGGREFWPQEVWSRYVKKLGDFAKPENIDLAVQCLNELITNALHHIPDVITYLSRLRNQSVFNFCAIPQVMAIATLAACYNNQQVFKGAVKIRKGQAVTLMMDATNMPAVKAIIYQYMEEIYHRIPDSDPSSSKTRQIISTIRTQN
Sequence of S. aureus CrtM (dehydrosqualene synthase) (A9JQL9 whole entry): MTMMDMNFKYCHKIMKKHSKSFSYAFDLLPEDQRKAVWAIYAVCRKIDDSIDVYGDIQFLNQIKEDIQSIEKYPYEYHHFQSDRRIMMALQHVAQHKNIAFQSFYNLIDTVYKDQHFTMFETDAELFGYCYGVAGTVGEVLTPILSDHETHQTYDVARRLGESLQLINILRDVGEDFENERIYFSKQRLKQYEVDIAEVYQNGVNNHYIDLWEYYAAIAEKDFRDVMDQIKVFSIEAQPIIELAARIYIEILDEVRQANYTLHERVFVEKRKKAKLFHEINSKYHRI

## O=P(O)(O)C(CCCc1cccc(Oc2ccc(O)cc2)c1)S(=O)(=O)O (stereo not shown) [Compound 27, 1-Phosphono-4-[3-(4-hydroxyphenoxy)phenyl]butylsulfonic Acid Tripotassium Salt]
[1]
  IC50: 6.8 µM

## O=P([O-])([O-])C(CCCc1ccc(-c2ccc(C(F)(F)F)cc2)cc1)P(=O)([O-])[O-].[K+].[K+].[K+].[K+] [Compound 3]
[2]
  IC50: 0.182 µM
[3]
  pIC50(CrtM) – pIC50(hSQS): −1.86 M

## O=P([O-])([O-])[C@H](CCCc1cccc(Oc2ccccc2)c1)S(=O)(=O)[O-].[K+].[K+].[K+] [Compound (S)-1, (1S)-1-Phosphono-4-(3-phenoxyphenyl)butylsulfonic Acid Tripotassium Salt]
[2]; fold
  more active than its (R)-enantiomer in CrtM inhibition: ~30 ×

## O=P([O-])([O-])C(CCCc1cccc(Oc2ccccc2Cc2ccccc2)c1)S(=O)(=O)[O-].[K+].[K+].[K+] (stereo not shown) [Compound 8, 1-Phosphono-4-[3-(2-benzylphenoxy)phenyl]butylsulfonic Acid Tripotassium Salt]
[2]
  less active than 1 in CrtM inhibition: ≈ 5 ×

## O=P([O-])([O-])C(Cc1cccc(Oc2ccccc2)c1)S(=O)(=O)[O-].[K+].[K+].[K+] (stereo not shown) [Compound 14, 1-Phosphono-2-(3-phenoxyphenyl)ethylsulfonic Acid Tripotassium Salt]
[3]
  pIC50(CrtM) – pIC50(hSQS): −2.66 M

## O=P([O-])([O-])C(CCc1cccc(Oc2ccccc2)c1)S(=O)(=O)[O-].[K+].[K+].[K+] (stereo not shown) [Compound 15, 1-Phosphono-3-(3-phenoxyphenyl)propylsulfonic Acid Tripotassium Salt]
[3]
  pIC50(CrtM) – pIC50(hSQS): −2.96 M

## O=P([O-])([O-])C(CCCc1cccc(Oc2ccc(F)cc2)c1)S(=O)(=O)[O-].[K+].[K+].[K+] (stereo not shown) [Compound 5, 1-Phosphono-4-[3-(4-fluorophenoxy)phenyl]butylsulfonic Acid Tripotassium Salt]
[2]
  as active as 1 in CrtM inhibition: ~4 ×

## CCCc1ccc(Oc2cccc(CCCC(P(=O)([O-])[O-])S(=O)(=O)[O-])c2)cc1.[K+].[K+].[K+] (stereo not shown) [Compound 6, 1-Phosphono-4-[3-(4-propylphenoxy)phenyl]butylsulfonic Acid Tripotassium Salt]
[2]
  as active as 1 in CrtM inhibition: ~4 ×

## O=P([O-])([O-])C(CCCc1cccc(Oc2ccccc2)c1)S(=O)(=O)[O-].[K+].[K+].[K+] (stereo not shown) [Compound 1, 1-Phosphono-4-(3-phenoxyphenyl)butylsulfonic Acid Tripotassium Salt]
S. aureus
  bacterial counts in kidneys reduced: 98%
